Results as given in PubChem BioAssay (NCI).
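Values below derive from 48-hour exposures of cells grown in 96-well plates, with endpoints linearly interpolated between the two concentrations bracketing the appropriate inhibition level. TGI: total growth inhibition.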

Assays:
Test in all cases: NCI anticancer screen, dose series, 48 h
786-0 renal = tested on: 786-0 renal
A498 renal = tested on: A498 renal
A549 NSCLC = tested on: A549 NSCLC
ACHN renal = tested on: ACHN renal
BT-549 breast = tested on: BT-549 breast
CAKI-1 renal = tested on: CAKI-1 renal
CCRF-CEM leukemia = tested on: CCRF-CEM leukemia
COLO 205 colon = tested on: COLO 205 colon
DU-145 prostate = tested on: DU-145 prostate
EKVX NSCLC = tested on: EKVX NSCLC
HCC-2998 colon = tested on: HCC-2998 colon
HCT-116 colon = tested on: HCT-116 colon
HCT-15 colon = tested on: HCT-15 colon
HL-60(TB) leukemia = tested on: HL-60(TB) leukemia
HOP-62 NSCLC = tested on: HOP-62 NSCLC
HOP-92 NSCLC = tested on: HOP-92 NSCLC
HS 578T breast = tested on: HS 578T breast
HT29 colon = tested on: HT29 colon
IGROV1 ovarian = tested on: IGROV1 ovarian
K-562 leukemia = tested on: K-562 leukemia
KM12 colon = tested on: KM12 colon
LOX IMVI melanoma = tested on: LOX IMVI melanoma
M14 melanoma = tested on: M14 melanoma
MALME-3M melanoma = tested on: MALME-3M melanoma
MCF7 breast = tested on: MCF7 breast
MDA-MB-231 breast = tested on: MDA-MB-231 breast
MDA-MB-435 = tested on: MDA-MB-435
MDA-N = tested on: MDA-N
MOLT-4 leukemia = tested on: MOLT-4 leukemia
NCI-H226 lung = tested on: NCI-H226 lung
NCI-H23 lung = tested on: NCI-H23 lung
NCI-H460 lung = tested on: NCI-H460 lung
NCI-H522 lung = tested on: NCI-H522 lung
NCI/ADR-RES ovarian = tested on: NCI/ADR-RES ovarian
OVCAR-3 ovarian = tested on: OVCAR-3 ovarian
OVCAR-4 ovarian = tested on: OVCAR-4 ovarian
OVCAR-5 ovarian = tested on: OVCAR-5 ovarian
OVCAR-8 ovarian = tested on: OVCAR-8 ovarian
PC-3 prostate = tested on: PC-3 prostate
RPMI-8226 leukemia = tested on: RPMI-8226 leukemia
RXF 393 renal = tested on: RXF 393 renal
SF-268 CNS = tested on: SF-268 CNS
SF-295 CNS = tested on: SF-295 CNS
SF-539 CNS = tested on: SF-539 CNS
SK-MEL-2 melanoma = tested on: SK-MEL-2 melanoma
SK-MEL-28 melanoma = tested on: SK-MEL-28 melanoma
SK-MEL-5 melanoma = tested on: SK-MEL-5 melanoma
SK-OV-3 ovarian = tested on: SK-OV-3 ovarian
SN12C renal = tested on: SN12C renal
SNB-19 CNS = tested on: SNB-19 CNS
SNB-75 CNS = tested on: SNB-75 CNS
SR leukemia = tested on: SR leukemia
SW-620 colon = tested on: SW-620 colon
T-47D breast = tested on: T-47D breast
TK-10 renal = tested on: TK-10 renal
U251 CNS = tested on: U251 CNS
UACC-257 melanoma = tested on: UACC-257 melanoma
UACC-62 melanoma = tested on: UACC-62 melanoma
UO-31 renal = tested on: UO-31 renal

OC(CC(CC(O)(C(F)(F)F)C(F)(F)F)=NN=C(CC(O)(C(F)(F)F)C(F)(F)F)CC(O)(C(F)(F)F)C(F)(F)F)(C(F)(F)F)C(F)(F)F
TGI (786-0 renal): > 10 µM | TGI (A498 renal): > 10 µM | TGI (A549 NSCLC): > 10 µM | TGI (ACHN renal): > 10 µM | TGI (BT-549 breast): > 10 µM | TGI (CAKI-1 renal): > 10 µM | TGI (CCRF-CEM leukemia): > 10 µM | TGI (COLO 205 colon): > 10 µM | TGI (DU-145 prostate): > 10 µM | TGI (EKVX NSCLC): > 10 µM | TGI (HCC-2998 colon): > 10 µM | TGI (HCT-116 colon): > 10 µM | TGI (HCT-15 colon): > 10 µM | TGI (HL-60(TB) leukemia): > 10 µM | TGI (HOP-62 NSCLC): > 10 µM | TGI (HOP-92 NSCLC): > 10 µM | TGI (HS 578T breast): > 10 µM | TGI (HT29 colon): > 10 µM | TGI (IGROV1 ovarian): > 10 µM | TGI (K-562 leukemia): > 10 µM | TGI (KM12 colon): > 10 µM | TGI (LOX IMVI melanoma): > 10 µM | TGI (M14 melanoma): > 10 µM | TGI (MALME-3M melanoma): > 10 µM | TGI (MCF7 breast): > 10 µM | TGI (MDA-MB-231 breast): > 10 µM | TGI (MDA-MB-435): > 10 µM | TGI (MDA-N): > 10 µM | TGI (MOLT-4 leukemia): > 10 µM | TGI (NCI-H226 lung): > 10 µM | TGI (NCI-H23 lung): > 10 µM | TGI (NCI-H460 lung): > 10 µM | TGI (NCI-H522 lung): > 10 µM | TGI (NCI/ADR-RES ovarian): > 10 µM | TGI (OVCAR-3 ovarian): > 10 µM | TGI (OVCAR-4 ovarian): > 10 µM | TGI (OVCAR-5 ovarian): > 10 µM | TGI (OVCAR-8 ovarian): > 10 µM | TGI (PC-3 prostate): > 10 µM | TGI (RPMI-8226 leukemia): > 10 µM | TGI (RXF 393 renal): > 10 µM | TGI (SF-268 CNS): > 10 µM | TGI (SF-295 CNS): > 10 µM | TGI (SF-539 CNS): > 10 µM | TGI (SK-MEL-2 melanoma): > 10 µM | TGI (SK-MEL-28 melanoma): > 10 µM | TGI (SK-MEL-5 melanoma): > 10 µM | TGI (SK-OV-3 ovarian): > 10 µM | TGI (SN12C renal): > 10 µM | TGI (SNB-19 CNS): > 10 µM | TGI (SNB-75 CNS): > 10 µM | TGI (SR leukemia): > 10 µM | TGI (SW-620 colon): > 10 µM | TGI (T-47D breast): > 10 µM | TGI (TK-10 renal): > 10 µM | TGI (U251 CNS): > 10 µM | TGI (UACC-257 melanoma): > 10 µM | TGI (UACC-62 melanoma): > 10 µM

CNC(=S)/C(C#N)=C(\N)N1CCN(C)CC1
TGI (786-0 renal): > 100 µM | TGI (A498 renal): > 100 µM | TGI (A549 NSCLC): > 100 µM | TGI (ACHN renal): > 100 µM | TGI (BT-549 breast): > 100 µM | TGI (CAKI-1 renal): > 100 µM | TGI (CCRF-CEM leukemia): > 100 µM | TGI (COLO 205 colon): > 100 µM | TGI (DU-145 prostate): > 100 µM | TGI (EKVX NSCLC): > 100 µM | TGI (HCC-2998 colon): > 100 µM | TGI (HCT-116 colon): > 100 µM | TGI (HCT-15 colon): > 100 µM | TGI (HL-60(TB) leukemia): > 100 µM | TGI (HOP-62 NSCLC): > 100 µM | TGI (HOP-92 NSCLC): > 100 µM | TGI (HS 578T breast): > 100 µM | TGI (HT29 colon): > 100 µM | TGI (IGROV1 ovarian): > 100 µM | TGI (K-562 leukemia): > 100 µM | TGI (KM12 colon): > 100 µM | TGI (LOX IMVI melanoma): > 100 µM | TGI (M14 melanoma): > 100 µM | TGI (MALME-3M melanoma): > 100 µM | TGI (MCF7 breast): > 100 µM | TGI (MDA-MB-231 breast): > 100 µM | TGI (MDA-MB-435): > 100 µM | TGI (MDA-N): > 100 µM | TGI (MOLT-4 leukemia): > 100 µM | TGI (NCI-H226 lung): > 100 µM | TGI (NCI-H23 lung): > 100 µM | TGI (NCI-H522 lung): > 100 µM | TGI (NCI/ADR-RES ovarian): > 100 µM | TGI (OVCAR-3 ovarian): > 100 µM | TGI (OVCAR-5 ovarian): > 100 µM | TGI (OVCAR-8 ovarian): > 100 µM | TGI (PC-3 prostate): > 100 µM | TGI (RPMI-8226 leukemia): > 100 µM | TGI (RXF 393 renal): > 100 µM | TGI (SF-268 CNS): > 100 µM | TGI (SF-295 CNS): > 100 µM | TGI (SF-539 CNS): > 100 µM | TGI (SK-MEL-2 melanoma): > 100 µM | TGI (SK-MEL-5 melanoma): > 100 µM | TGI (SK-OV-3 ovarian): > 100 µM | TGI (SN12C renal): > 100 µM | TGI (SNB-19 CNS): > 100 µM | TGI (SNB-75 CNS): > 100 µM | TGI (SR leukemia): > 100 µM | TGI (SW-620 colon): > 100 µM | TGI (T-47D breast): > 100 µM | TGI (TK-10 renal): > 100 µM | TGI (U251 CNS): > 100 µM | TGI (UACC-257 melanoma): > 100 µM | TGI (UACC-62 melanoma): > 100 µM | TGI (UO-31 renal): > 100 µM
